Measured values as given in patent US12558326B2, “Method for treating epilepsy” (Xenon Pharmaceuticals Inc., priority 2018, dated 2026).
Several values for one entry are separate records, joined by “and”; a condition that tells them apart may be missing. Identical values can stand only once.

Legend:
[1] = tested on: CF-1 mice; assay: 6 Hz seizure test (44 mA, 3 sec, corneal electrodes) in vivo; parameters: species or system mouse; conditions: 20 mg/kg IP; for percentage of animals protected against psychomotor seizures: one hour before assay, 6 Hz 44 mA, n=16 per group
Excerpt: This assay tests the ability of a test compound to block a psychomotor seizure induced by long-duration, low frequency (6 Hz) stimulation, and provides an art-accepted model of therapy-resistant partial seizure (Brown et al., 1953 J. Pharmacol. Exp. Therapeut. 107(3):273-283; White H S, Woodhead J H, Wilcox K S, General principles: discovery and preclinical development of antiepileptic drugs, In: Levy R H, Mattson R H, Meldrum B S, Perucca E, editors. Antiepileptic drugs 5th ed Philadelphia: Lippincott Williams & Wilkins; 2002. pp. 36-48; Hartman et al., 2008 Epilepsia 49(2):334-339).
Methods. Adult male CF1 mice (18-25 g) are pretreated intraperitoneally (i.p.) with the test compound at a dose of 20-100 mg/kg. If toxicity is noted in a pre-test screen for toxic effects when the test compound is administered i.p. at varying dosages, the dose is modified to avoid overt toxic effects. Each treatment group (n=4-16 mice/group) is examined for anticonvulsive effects at one or more of five time points (¼, ½, 1, 2, and 4 hr) after treatment with the test compound. Following pretreatment, each mouse receives a drop of 0.5% tetracaine hydrochloride applied to each eye. The mouse is then challenged with low-frequency (6 Hz) stimulation for 3 sec delivered through corneal electrodes. The low-frequency, long-duration stimuli are initially delivered at 32 mA intensity. Animals are manually restrained and released immediately following the stimulation and observed for the presence or absence of seizure activity. If the test compound is effective in the 32 mA screen, an additional assay is performed in which the stimulation current is increased to 44 mA but otherwise using the same protocol as described above. For dose-response studies, an n of 8 mice is used per dose and a dose-response curve is generated at the time of peak effect (TPE) at the specific stimulation intensity.
Typically, the 6 Hz stimulation results in a seizure characterized by a minimal clonic phase that is followed by stereotyped, automatistic behaviors, including jaw clonus, forelimb clonus, twitching of the vibrissae, and/or Straub-tail. Animals not displaying such behaviors are considered protected. Seizure score can be used as an additional measure of the efficacy of the investigational compound (Racine, R. J. 1972 Electroencephalogr. Clin. Neurophysiol. 32(3):281-294). Data are analyzed by Mann-Whitney U test, with p<0.05 determined to be statistically significant. For data obtained at each time point, results are expressed as the total number of animals protected out of the number of animals tested over time (e.g., 2/4 represents 2 out of 4 mice tested are protected).
In this Example, the in vivo anticonvulsant effects of candidate AEDs were tested in mice using the 6 Hz seizure test. The 6 Hz seizure test was performed essentially as described above in Biological Example 2, with minor modifications as presented here, including data collection at a time point that was one hour after administration of the candidate AEDs.
Compounds: Candidate AED compounds were prepared as described above unless otherwise noted, and were as follows: • Racemic fenfluramine ([rac]-fenfluramine hydrochloride); • (R)-fenfluramine ([R]-(−)-fenfluramine hydrochloride); • Racemic norfenfluramine ([rac]-norfenfluramine) was purchased from Toronto Research Chemicals, North York, Ontario, Canada; • (R)-norfenfluramine ([R]-(−)-norfenfluramine.
Animals: Adult male CF-1 albino mice (25-35 g) purchased from Harlan-Envigo (East Millstone, NJ). The mice were housed four per cage and had access to filtered water and chow ad libitum, throughout the experiment.
Compound Preparation and Administration: All four compounds were solubilized in sterile aqueous saline solution (0.9% NaCl). Compounds were administered to animals (16 mice in each treatment group) via intraperitoneal (IP) injection at 10 ml/kg volume, one hour prior to the assay. Control animals received vehicle (saline) only. […]

[2] = Brain and plasma distribution after the 6 Hz assay (UHPLC-ESI-MS/MS); format: in vivo, mouse; conditions: 20 mg/kg IP, total concentration, sampled immediately after 6 Hz assay (one hour post dose)
Procedure: Pharmacological distribution and bioanalysis. Immediately following characterization of seizure behaviors in the 6 Hz assay, animals were humanely sacrificed and brain and plasma samples were collected for analysis of the distribution of the administered compounds to these tissue compartments.
Brain sample homogenization. Pre-weighed whole mouse brains were thawed and 1 mL of deionized water and 1 mL of acetonitrile were added to each sample vial containing brain tissue. The samples were homogenized using a hand-held Omni™ TH homogenizer (Omni International, Kennesaw, GA, USA) until a uniform slurry was obtained. 1 mL aliquots of the slurry were transferred to clean 1.5 mL plastic Eppendorf tubes and the tubes were centrifuged at 13,000 rpm (15,871×g) for 20 minutes. The supernatant was collected and stored in clean labelled plastic Eppendorf vials at −80° C.
Mouse plasma and brain homogenate sample preparation. Mouse brain homogenates and mouse plasma samples, as well as calibration standards and QC samples prepared from control (“blank”) untreated mouse plasma, were extracted by protein precipitation. Briefly, 50 μL of each brain homogenate and mouse plasma sample (as well as each calibration standard, QC sample and blank mouse plasma sample) was mixed with 50 μL of internal standard solution [a 2,500 ng/mL solution of (S)-5-((1-benzylpyrrolidin-3-yl)(methyl)amino)-6-methyl-N-(thiazol-4-yl)pyridine-2-sulfonamide in deionized water/acetonitrile (1:1 v/v)], followed by addition of 50 μL of 6% (v/v) phosphoric acid in water. This was followed by the addition of 200 μL of acetonitrile. The samples were vortexed for 30 seconds and then centrifuged for 20 min at 13,000 rpm (15,871×g). The supernatants were further diluted four-fold with acetonitrile:water (1:1 v/v) and transferred to a 96-well plate prior to analysis. Calibration and QC samples were prepared in blank K2EDTA mouse plasma in the concentration range from 2.3 ng/mL to 4800 ng/mL with QC samples, including low QC (14 ng/mL), mid QC (225 ng/mL), and high QC (3600 ng/mL).
UHPLC-ESI-MS/MS analysis. Samples were then analyzed by ultra-high pressure liquid chromatography/electrospray ionization tandem mass spectroscopy (UHPLC-ESI MS/MS) using a Sciex™ TQ-5500 (AB Sciex™ LP, Concord, ON, Canada) mass spectrometer equipped with a Shimadzu Nexera™ UHPLC pump, column compartment and auto-sampler (Shimadzu Scientific Instruments, Inc., Columbia, MD, USA), using a binary gradient elution starting with 80% water (A)/20% acetonitrile (B), both solvents containing 0.1% formic acid. After 0.6 minutes, mobile phase B was increased linearly to 100% to 1 minute and elution was maintained at 100% mobile phase B until 1.5 minutes, and then allowed to re-equilibrate at the initial ration of 80% mobile phase A and 20% mobile phase B for a total run time of 2.5 minutes at a flow rate of 0.4 mL/min. The column used was ACE Excel™ 2 C18-PFP (2.1 mm i.d.×[…], 2 μm particle size)(Advanced Chromatography Technologies Ltd, Aberdeen, Scotland). The analytes and the internal standard were ionized by electrospray in the positive ion mode and detected by multiple reaction monitoring (MRM) using the transitions listed in Table 1.

[3] = target: 5-HT2A receptor (Homo sapiens, UniProt P28223); conditions: Rothman et al. 2002, 2003; cited from earlier work
[4] = target: T1, 5-HT2C receptor (Homo sapiens, UniProt P28335); conditions: Rothman et al. 2002, 2003; cited from earlier work
T1 sequence (P28335 33-458): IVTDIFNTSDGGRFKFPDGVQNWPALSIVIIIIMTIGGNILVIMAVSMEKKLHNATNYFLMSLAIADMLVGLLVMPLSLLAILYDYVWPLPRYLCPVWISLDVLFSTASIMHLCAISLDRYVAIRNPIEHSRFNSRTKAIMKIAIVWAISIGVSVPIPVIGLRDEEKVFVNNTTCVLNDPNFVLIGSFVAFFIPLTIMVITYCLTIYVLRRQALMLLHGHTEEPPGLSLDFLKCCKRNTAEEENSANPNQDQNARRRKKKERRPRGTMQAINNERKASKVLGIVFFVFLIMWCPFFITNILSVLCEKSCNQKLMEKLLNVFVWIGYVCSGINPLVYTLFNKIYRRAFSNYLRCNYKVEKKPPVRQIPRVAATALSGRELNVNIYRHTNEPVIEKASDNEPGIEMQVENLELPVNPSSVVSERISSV

[5] = target: 5-HT2B receptor (Homo sapiens, UniProt P41595); conditions: Rothman et al. 2002, 2003; cited from earlier work
[6] = tested on: norepinephrine (NE) release; conditions: Rothman et al. 2002, 2003; cited from earlier work
[7] = tested on: DBA/2 mice; assay: Audiogenic seizure test in DBA/2 mice; format: in vivo, mouse; conditions: 180 mg/kg IP, 30 min prior
Procedure: DBA/2 is a widely used inbred strain of mouse susceptible to audiogenic seizures due to the asp2 mutation. […] The objective of this study was to evaluate the anticonvulsant activity of (R/S)-fenfluramine and to compare it to (R)-fenfluramine in the DBA/2 mouse.
The method follows that described by Dilrmuiller et al., Neuroreport 4(6):683-686. Mice (DBA/2, 3-4 weeks old) were individually transferred (at 3-5 minute intervals) from the preparation room into an adjacent experimental room and placed in a Plexiglas™ jar (Diameter=40 cm; Height=35 cm) mounted with an electric bell (110-120 dB). Upon activating the bell, the occurrences and latencies to wild running fits, clonic and tonic seizures were measured. The number of deaths was also recorded. An audiogenic response score was assigned to each mouse as 0 (no seizure), 1 (wild running), 2 (clonic convulsion), 3 (tonic extension), or 4 (death). The bell was activated until a tonic seizure occurred or for a maximum of 60 seconds. Ten (10) mice were studied per group. The test was performed blind. All test compounds were dissolved in 0.9% saline (vehicle) and were administered by intraperitoneal (IP) injection at a dose volume of 10 mL/kg. Vehicle alone, (R/S)-fenfluramine (15 or 30 mg/kg) or (R)-fenfluramine (30 mg/kg) were administered 60 minutes prior to seizure induction. The positive reference compound (valproate; 180 mg/kg) was administered 30 minutes prior to seizure induction.

[8] = tested on: 6 Hz model; conditions: 30 min after i.p. injection; cited from earlier work
[9] = tested on: MES test; conditions: in vivo; cited from earlier work

Sequence of 5-HT2B receptor (P41595 whole entry): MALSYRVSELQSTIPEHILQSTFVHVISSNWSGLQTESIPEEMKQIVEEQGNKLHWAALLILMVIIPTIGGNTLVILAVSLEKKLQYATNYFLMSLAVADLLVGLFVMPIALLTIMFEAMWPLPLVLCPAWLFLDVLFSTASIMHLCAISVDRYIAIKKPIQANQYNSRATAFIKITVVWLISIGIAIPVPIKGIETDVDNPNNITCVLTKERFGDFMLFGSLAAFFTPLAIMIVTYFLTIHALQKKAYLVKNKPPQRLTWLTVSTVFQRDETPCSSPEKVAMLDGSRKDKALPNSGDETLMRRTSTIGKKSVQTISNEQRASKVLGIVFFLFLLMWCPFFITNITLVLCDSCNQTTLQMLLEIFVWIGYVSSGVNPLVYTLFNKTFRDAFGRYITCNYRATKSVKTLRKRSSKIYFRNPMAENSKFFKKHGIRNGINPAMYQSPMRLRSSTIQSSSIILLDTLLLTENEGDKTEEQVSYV
Sequence of 5-HT2A receptor (P28223 whole entry): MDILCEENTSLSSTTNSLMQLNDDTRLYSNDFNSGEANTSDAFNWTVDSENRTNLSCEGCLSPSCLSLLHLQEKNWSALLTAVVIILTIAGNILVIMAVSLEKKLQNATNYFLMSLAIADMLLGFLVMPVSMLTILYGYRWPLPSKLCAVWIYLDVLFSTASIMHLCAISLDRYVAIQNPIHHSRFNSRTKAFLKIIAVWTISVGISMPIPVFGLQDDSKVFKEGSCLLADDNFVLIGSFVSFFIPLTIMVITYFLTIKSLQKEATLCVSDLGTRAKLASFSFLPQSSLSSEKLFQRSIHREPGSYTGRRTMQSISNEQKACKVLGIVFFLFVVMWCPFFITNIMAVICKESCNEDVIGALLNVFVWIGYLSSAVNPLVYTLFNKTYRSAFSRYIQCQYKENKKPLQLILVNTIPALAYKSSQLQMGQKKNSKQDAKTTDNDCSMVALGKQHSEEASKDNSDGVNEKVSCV

## CC(N)Cc1cccc(C(F)(F)F)c1 (racemic) [(rac)-norfenfluramine, (R/S)-1-(3-(trifluoromethyl)phenyl)propan-2-amine]
[1]
  percentage of animals protected against psychomotor seizures: 50%
[1]; summary statement
  protective activity against seizures in the 6 Hz psychomotor seizure assay: exhibited protective activity against seizures
[2]
  Brain concentration: 151.2 μM and 30718 ng/g
  Plasma concentration: 12.97 μM and 2636 ng/g

## C[C@H](N)Cc1cccc(C(F)(F)F)c1 [(S)-norfenfluramine, (S)-1-((3-trifluoromethyl)phenyl)propan-2-amine]
[3]
  5-HT2A agonist activity: potent
[4]
  5-HT2C agonist activity: potent
[5]
  5-HT2B agonist activity: potent
[6]
  NE release-promoting activity: potent

## CCCC(CCC)C(=O)O [Valproate]
[7]; n=10
  Clonic Convulsion Incidence: 0%
  Tonic Extension Incidence: 0%
  Wild Running Incidence: 40%
[7]; mean ± SEM, maximum 60 s
  Clonic Convulsion Latency: 60.0 ± 0.0 s
  Tonic Extension Latency: 60.0 ± 0.0 s
  Wild Running Latency: 38.1 ± 9.0 s
[7]; score 0-4, mean ± SEM, n=10
  Audiogenic Response Score: 0.4 ± 0.16

## CC[C@@H](C(N)=O)N1CCCC1=O [levetiracetam]
[8]
  ED50: 19 mg/kg
[9]
  efficacy in the MES test: ineffective

## C[C@@H](N)Cc1cccc(C(F)(F)F)c1 [(R)-norfenfluramine, (R)-1-(3-(trifluoromethyl)phenyl)propan-2-amine]
[1]
  percentage of animals protected against psychomotor seizures: 50%
[2]
  Brain concentration: 179.6 μM and 36501 ng/g
  Plasma concentration: 17.73 μM and 3604 ng/g
